In brackets after ≈: the same amount, converted by molar mass. Where two headings read alike, the source gives them in different places. Square brackets hold non-standard residues; d marks the D form. Peptide text beside a SMILES is read from it.
How the values were obtained:
[1] = Cytotoxicity assay (resazurin); type: cell-based; conditions: human
Experimental: Normal human cells used were BEAS-2B (ATCC CRL-9609), IMR-90 (ATCC CCL-186) and Human Umbilical Vein Endothelial Cells (HUVEC) (from Sigma-Aldrich) corresponding respectively to human normal lung epithelial, normal lung fibroblast cells and human normal endothelial cells. All cells except HUVEC cells were cultured in Dulbecco's modified essential medium (DMEM) supplemented with 10% fetal calf serum (FCS), 1% L-glutamine and 1% antibiotics (all from Invitrogen). HUVEC cells were cultured in specific endothelial media (from Sigma Aldrich). Cells were seeded onto […] maintained in a 5% CO2 incubator at 37 °C. Cells grown on 25 cm^2 flasks were detached using trypsin-EDTA solution (from Thermofisher), counted using Mallassez counting chamber and seeded into 96-well cell culture plates (Greiner bio-one) at approximately 10,000 cells per well. The cells were left to grow for 48-72 h at 37 °C in a 5% CO2 incubator until they reached confluence. Plates were then aspirated and increasing concentrations of peptides diluted in culture media were added to the cells for 48 h at 37 °C in a 5% CO2 incubator. At the end of the incubation, wells were emptied and cell viability was evaluated using Resazurin based in vitro toxicity assay kit (from Sigma-Aldrich) following manufacturer's instructions. Briefly, Resazurin stock solution was diluted 1:10 in sterile PBS containing calcium and magnesium (PBS, pH 7.4) and empty wells were filled with 100 µL of the diluted solution. After 4 h incubation at 37 °C, fluorescence intensity was measured using microplate reader (Synergy Mx, Biotek) with an excitation wavelength of 530 nm and an emission wavelength of 590 nm. The fluorescence values were normalized by the controls (buffer treated cells) and expressed as percent viability. The IC50 values of peptides on cell viability (i.e. the concentration of derivative causing a reduction of 50% of cell viability) were determined using GraphPad® Prism 7 software. t-Test and two way ANOVA analyses were used to address the significant differences between mean values with significance set at p < 0.05.

Pseudomonas aeruginosa = assay: Stability of the peptides to proteases and human serum (MIC of digested peptides); type: in vitro ADME; conditions: against Pseudomonas aeruginosa
Experimental: In order to evaluate the stability of the peptides to condition they will face in vivo, their resistance to proteases and human serum was evaluated (Oyama et al., 2017 Biofilms Microbiomes, Dec 1;3:33). Briefly, one volume of peptides (at 1 mM) was diluted in one volume of proteases (Pepsin, Trypsin, Chymotrypsin, Papain all from Sigma Aldrich and diluted at 2 mg/ml in HCl 10 mM pH2 for Pepsin, PBS pH 7 for Trypsin and Chymotrysin and PBS pH 6 for Papain) or human serum (Sigma Aldrich H4522). Peptides incubated in the same conditions in PBS were used as controls. After 4 h (for proteases) and 4 or 24 h (for human serum) of incubation at 37°C, PMSF was added to the reaction mixture at a final concentration of 100 µM to stop the digestion. MIC of the digested peptides were then determined as explained above.

MDA-MB-231 = assay: Antitumor / antiproliferative activity (resazurin); type: cell-based, human; conditions: breast cancer cells; 5,000 cells/well; 48 h; read-out: IC50 antiproliferative effect MDA-MB-231
Experimental: (§1) Human cancer cell lines (Mia PaCa-2 (CRL-1420), PC-3 (CRL-1435), MDA-MB-231 (HTB-26)) and normal lung fibrobasts (BEAS-2B (ATCC CRL-9609) and IMR-90 (ATCC CCL-186)) were obtained from American Type Culture Collection (ATCC). HUVEC cells were obtained from Sigma Aldrich and were grown in defined all-in-one ready to use endothelial cell growth medium (Sigma Aldrich). Other cells were cultured in Dulbecco's modified Eagle's medium (DMEM, Gibco Life Technologies) supplemented with 10% heat-inactivated fetal calf serum (FCS, Lonza) at 37 °C in an incubator containing 5% CO2. Cells were sub-cultured in new media every 3-4 days. Antiproliferative / antitumor effects of the peptides were measured as previously described (Borie et al., Eur J Med Chem. 2018;148:306-313). Briefly, cells were detached from growing flask using trypsin, cells were counted and seeded in 96 well-plates in the growth media at an initial cell density of 5000 cells/well. Cells were left for 4 h to attach to the wells. Cells were then treated with increasing concentrations of peptides diluted in culture media. After 48 h incubation at 37 °C in a 5% CO2 incubator, wells were emptied and cell number was evaluated using Resazurin based in vitro toxicity assay kit (from Sigma-Aldrich) following manufacturer's instructions. Briefly, Resazurin stock solution was diluted 1:10 in sterile PBS containing calcium and magnesium (PBS, pH 7.4) and empty wells were filled with 100 µL of the diluted solution. After 4 h incubation at 37 °C, fluorescence intensity was measured using microplate reader (Synergy Mx, Biotek) with an excitation wavelength of 530 nm and an emission wavelength of 590 nm. The fluorescence values were normalized by the controls (buffer treated cells) and expressed as per-cent viability. The IC50 values of peptides on cell division / proliferation (i.e. the concentration of derivative causing a reduction of 50% of cell division) were determined using GraphPad ® Prism 7 software. t-Test and two way ANOVA analyses were used to address the significant differences between mean values with significance set at p < 0.05.

MiaPaCa-2 = assay: Antitumor / antiproliferative activity (resazurin); type: cell-based, human; conditions: pancreas cancer cells; 5,000 cells/well; 48 h; read-out: IC50 antiproliferative effect MiaPaCa-2
Experimental: as §1

PC-3 = assay: Antitumor / antiproliferative activity (resazurin); type: cell-based, human; conditions: prostate cancer cells; 5,000 cells/well; 48 h; read-out: IC50 antiproliferative effect PC-3
Experimental: as §1

P. aeruginosa [2] = system: P. aeruginosa
[3] = system: B. subtilis (Nisin-resistant)
M. smegmatis = conditions: 72 h
B. subtilis = assay: Selection for resistant bacteria (serial passaging); type: cell-based; conditions: daily exposure at sub-MIC levels, 30 days; antibiotic: after 10 days
Experimental: To evaluate if populations of AMP-resistant bacteria could be selected, cultures were continuously exposed to LTX-gallicune-1 (I1N1) and LTX-gallicune-2(R1W8) peptides for a duration of 30 days, as previously described (Oyama et al., 2017 Biofilms Microbiomes, Dec 1;3:33). Briefly, broth microdilution susceptibility testing was performed using a standard doubling-dilution series of gallicune peptides concentrations on day 1. Following incubation of the cultures for 24 h, and determination of the MIC, the well that contained the highest concentration of AMPs permitting growth was diluted 1: 1000 in MH and used to provide the inoculum for the next MIC assay; this process was repeated daily for 30 days.

P. aeruginosa [4] = assay: Antimicrobial tests (MIC/MBC, two-fold serial dilution); type: cell-based, Pseudomonas aeruginosa (ATCC 9037); conditions: Table 3; n=4

## CC[C@@H](C)[C@@H](N)C(=O)N[C@@H](CC(C)C)C(=O)N[C@@H](CCCCN)C(=O)N[C@@H](C)C(=O)N[C@H](C(=O)N[C@@H](CCCCN)C(=O)N[C@@H](CCCCN)C(=O)N[C@@H](CC(C)C)C(=O)N[C@@H](CC(C)C)C(=O)N[C@@H](CCCCN)C(=O)N[C@H](CC(N)=O)C(N)=O)[C@@H](C)CC [LTX-gallicune-1(i1D-n11D)] (H-[dI]LKAIKKLLK[dN]-NH2)
[1]; BEAS-2B normal lung epithelial cells, normal lung epithelium, read-out: Cytotoxicity IC50 (µM) BEAS
  CC50 at 48 h: 391 µM
[1]; HUVEC (human umbilical vein endothelial cells), normal endothelium, read-out: Cytotoxicity IC50 (µM) HUVEC
  CC50 at 48 h: 436 µM
[1]; IMR-90 normal lung fibroblast cells, read-out: Cytotoxicity IC50 (µM) IMR90
  CC50 at 48 h: 362 µM
Pseudomonas aeruginosa; after 4 h at 37°C in human serum
  MIC (µM) Serum4h: >50 µM
Pseudomonas aeruginosa; after 4 h at 37°C with chymotrypsin, pH 7
  MIC (µM) Chymotrypsin: >50 µM
Pseudomonas aeruginosa; after 4 h at 37°C with pepsin, pH2
  MIC (µM) Pepsin: >50 µM
Pseudomonas aeruginosa; after 4 h at 37°C with trypsin, pH 7
  MIC (µM) Trypsin: >50 µM
Pseudomonas aeruginosa; after 24 h at 37°C in human serum
  MIC (µM) Serum24h: 25 µM
Pseudomonas aeruginosa; peptide incubated in PBS, not treated with proteases
  MIC (µM) Control: 3.125 µM
MDA-MB-231
  IC50: 75.6 µM
MiaPaCa-2
  IC50: 4.61 µM
PC-3
  IC50: 32.3 µM
P. aeruginosa [2]
  MBC (µM) P. aeruginosa: 1.5 µM (≈ 1.92 µg/mL)
  MIC (µM) P. aeruginosa: 1.5 µM (≈ 1.92 µg/mL)
  MIC PA: 1.5 µM (≈ 1.92 µg/mL)
A.baumani
  MIC (µM) A.baumani: 12.5 µM (≈ 16 µg/mL)
L. lactis
  MBC (µM) L. lactis: 0.78 µM (≈ 0.999 µg/mL)
  MIC (µM) L. lactis: 1.5 µM (≈ 1.92 µg/mL)
[3]
  MBC (µM) B. subtilis (Nisin-resistant): 6.25 µM (≈ 8 µg/mL)
  MIC (µM) B. subtilis (Nisin-resistant): 6.25 µM (≈ 8 µg/mL)
A. gandavensis
  MBC (µM) A. gandavensis: 1.5 µM (≈ 1.92 µg/mL)
  MIC (µM) A. gandavensis: 1.5 µM (≈ 1.92 µg/mL)
E. coli EHEC K88
  MBC (µM) E. coli EHEC K88: 50 µM (≈ 64 µg/mL)
  MIC (µM) E. coli EHEC K88: 25 µM (≈ 32 µg/mL)
P. aeruginosa FQR
  MBC (µM) P. aeruginosa FQR: 25 µM (≈ 32 µg/mL)
  MIC (µM) P. aeruginosa FQR: 6.25 to 12.5 µM
P. aeruginosa 01
  MBC (µM) P. aeruginosa 01: 12.5 µM (≈ 16 µg/mL)
  MIC (µM) P. aeruginosa 01: 6.25 µM (≈ 8 µg/mL)
S. flexneri
  MBC (µM) S. flexneri: 12.5 µM (≈ 16 µg/mL)
  MIC (µM) S. flexneri: 12.5 µM (≈ 16 µg/mL)
C. farmeri
  MBC (µM) C. farmeri: 12.5 µM (≈ 16 µg/mL)
  MIC (µM) C. farmeri: 6.25 µM (≈ 8 µg/mL)
C. rodentium
  MBC (µM) C. rodentium: 25 µM (≈ 32 µg/mL)
  MIC (µM) C. rodentium: 25 µM (≈ 32 µg/mL)
S. enterica
  MBC (µM) S. enterica: 25 µM (≈ 32 µg/mL)
  MIC (µM) S. enterica: 25 µM (≈ 32 µg/mL)
V. alginolyticus
  MBC (µM) V. alginolyticus: 0.78 µM (≈ 0.999 µg/mL)
  MIC (µM) V. alginolyticus: 0.78 µM (≈ 0.999 µg/mL)
H. pylori
  MBC (µM) H. pylori: 25 µM (≈ 32 µg/mL)
  MIC (µM) H. pylori: 25 µM (≈ 32 µg/mL)
M. smegmatis
  MIC (µM) M. smegmatis: 25 µM (≈ 32 µg/mL)

## C/C(=C\C(=O)OCCCCCCCCC(=O)O)C[C@@H]1OC[C@H](C[C@@H]2O[C@H]2[C@@H](C)[C@H](C)O)[C@@H](O)[C@H]1O [Mupirocin]
B. subtilis
  change of MIC against B. subtilis on serial passaging (resistance acquisition): increasing

## Gentamycine
P. aeruginosa [4]
  MIC: 0.3 µM

Reference: EP3838286B1, “ANTIMICROBIAL PEPTIDE FROM POLISTES GALLICUS VENOM AND ITS ANALOGS” (Latoxan, priority 2019, dated 2021)
